These results are taken from patent US20250109387A1, “SMOOTH MUSCLE CELLS SEEDED IN MICROCHANNELS WITHIN HYDROGELS TO FORM FUNCTIONAL MEDIAL LAYERS IN ENGINEERED MICROVASCULATURE” (VANDERBILT UNIVERSITY, priority 2023, published 2025).

In this test the test system is HASMCs. The test can be described thus: Calcium imaging of HASMCs carrying GCaMP6f after ET-1 exposure. It counts as cell-based, human. As to conditions: 500 nM endothelin-1; HASMCs cultured in flasks (2D) and in channels (3D); fluorescence microscopy. As to the method:
Calcium imaging: HASMCs were infected with lentivirus carrying GCaMP6f and cultured in flasks (2D) and in channels (3D). Cells were then exposed to 500 nM endothelin-1 (ET-1, vasoconstrictor), and imaged via fluorescence microscopy (FIGS. 16A-16F).

endothelin-1 [ET-1]: the “intracellular Ca^2+ release (GCaMP6f fluorescence over time)” value is given as “substantial intracellular Ca^2+ release”.
